Results as given in US20260078145A1, “Polypeptides having cholesterol-lowering function in soybean protein hydrolysate, preparation method thereof, and uses thereof” (WUHAN ZHENFU INNOVATION BIOPHARMACEUTICAL CO., LTD, priority 2023, published 2026).
Where two headings read alike, the source gives them in different places. Marks after values point to notes of the source that are not given here. Ends that are not written are not given here.

Key:
hyperlipidemic rats = assay: Serum lipid levels in hyperlipidemic rat model after oral gavage; assay type: in vivo, Sprague-Dawley (SD) rats; conditions: after 4 weeks of oral gavage, high-fat diet rats
Procedure: After 1-2 weeks of feeding the high-fat diet to the modeling group, blood was collected from the blank control group and the modeling group without fasting (from the inner canthus or tail). Serum was separated as soon as possible after blood collection, and serum levels of Total Cholesterol (TC), Triglycerides (TG), Low-Density Lipoprotein Cholesterol (LDL-C), and High-Density Lipoprotein Cholesterol (HDL-C) were measured. The modeling group was randomly divided into 3 groups (model control group, cholesterol-lowering peptide group, lovastatin control group). No significant differences in TC, TG, LDL-C, and HDL-C were observed among these groups.
All rats had free access to water.

[1] = Rat body weight during oral gavage
Procedure: (§1) A hyperlipidemic animal model was established as follows: Forty healthy adult male Sprague-Dawley (SD) rats, weighing 200±20 g, were used. A blank control group of 10 rats was fed a standard diet. The remaining 30 rats constituted the modeling group and were fed a high-fat diet (commercially available, 60% fat content).
(§2) The blank control group and the model control group were administered an equal volume of 0.9% physiological saline by oral gavage. The other two groups were administered aqueous solutions of the test samples by oral gavage.
(§3) During the gavage period, the blank control group was fed a standard diet daily, while the other groups continued receiving the high-fat diet. All rats had free access to water. Oral gavage was performed once daily for 4 consecutive weeks, and body weights were measured regularly.

[2] = rat, in vivo, po
Procedure: as §1, §2, §3

## CC[C@H](C)C(=O)O[C@H]1C[C@@H](C)C=C2C=C[C@H](C)[C@H](CC[C@@H]3C[C@@H](O)CC(=O)O3)[C@H]21 [Lovastatin]
Hyperlipidemic rats
  High-Density Lipoprotein Cholesterol (HDL-C): 0.54**
  Low-Density Lipoprotein Cholesterol (LDL-C): 0.32**
  Total Cholesterol (TC): 3.06**
  Triglycerides (TG): 0.98**
[1]; Day 14 and Day 28 of administration, compared among groups
  effect on rat body weight: no significant effect
[1]; high-fat diet rats, oral gavage once daily, Day 0
  Body Weight (g) At Day 0 of Administration: 200.78 g
[1]; high-fat diet rats, oral gavage once daily, Day 14
  Body Weight (g) At Day 14 of Administration: 221.16 g
[1]; high-fat diet rats, oral gavage once daily, Day 28
  Body Weight (g) At Day 28 of Administration: 236.39 g

## FFFPF [FFFPF]
[2]
  Body Weight (g) At Day 0 of Administration: 200.89 g
  Body Weight (g) At Day 14 of Administration: 220.75 g
  Body Weight (g) At Day 28 of Administration: 237.35 g
